Calls of active or inactive are those of the source. The calls are words filed in the database; no cut-off is given here.

Data set [1] has as its system Candida albicans. The data set is described as follows: Antimicrobial activity against Candida albicans ATCC 14053 at 10 ug/disk by disk agar plate assay. Format: functional, organism-based.
Data set [2] relates to Escherichia coli. The data set is described as follows: Antimicrobial activity against Escherichia coli ATCC 11775 by disk agar plate assay. Type of data set: functional, organism-based.
The test system of data set [3] is Candida albicans. The data set is described as follows: Antimicrobial activity against Candida albicans ATCC 14053 at 100 ug/disk by disk agar plate assay. Particulars: read-out: IZ. Format: functional.
For data set [4], the system named is Salmonella enterica subsp. enterica. The data set is described as follows: Antimicrobial activity against Salmonella choleraesuis subsp. choleraesuis ATCC 14028 by disk agar plate assay. Type of data set: functional, organism-based.
Data set [5] relates to Staphylococcus aureus. The data set is described as follows: Antimicrobial activity against Staphylococcus aureus ATCC 12600 by disk agar plate assay. Format: functional, organism-based.
The subject of data set [6] is Pseudomonas aeruginosa. The data set is described as follows: Antimicrobial activity against Pseudomonas aeruginosa ATCC 10145 by disk agar plate assay. Format: functional, organism-based.
The test system of data set [7] is Artemia. The data set is described as follows: Toxicity against brine shrimp after 24 hrs. Format: organism-based. As to conditions: in vivo.
Data set [8] relates to Bacillus subtilis. The data set is described as follows: Antimicrobial activity against Bacillus subtilis ATCC 6051 by disk agar plate assay. Type of data set: functional, organism-based.

Take `CC(C)[C@@H]1NC(=O)CNC(=O)[C@@H]2CSC(=N2)[C@H](C(C)(C)O)OC(=O)C(C)(C)[C@H](CCCC(C)(Cl)Cl)OC(=O)c2csc1n2` [LYNGBYABELLIN B]: the outcome in data set [1] was Active. For the same molecule, the outcome in data set [2], in data set [4], in data set [5], in data set [6] and in data set [8] was inactive. In data set [3], the zone of inhibition at 100 µg/disc came out at 10.5 mm. In data set [7], this molecule displayed an LD50 of 3 ppm.

The record behind these values is ChEMBL document CHEMBL1155612, “Lyngbyabellin B, a toxic and antifungal secondary metabolite from the marine cyanobacterium Lyngbya majuscula” (J Nat Prod, 2000).
